Five molecules from PubChem BioAssay AID1918995 (Molecular Pharmacology Branch, DTP, NCI, 2023) can be followed below.

Values joined by “and” are separate entries in the source; they are usually repeats but may differ in a detail not shown here. Equal values may be shown once. Where only a bound is given, the exact number is not on record here.

In the test the test system is 324938-238-R-J1-PDC complex spheroid growth, % test/control. Briefly: Anticancer human tumor 324938-238-R-J1-PDC patient-derived bladder carcinoma cell line growth inhibition [AhR]. The note with it: for viability, T/C: stronger effect = lower value. A digest of the protocol:
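Agents were dosed in half-log steps down from roughly clinical Cmax, or from 10 microM where Cmax was unknown, alone and with AhR antagonists. Read-out: percent test/control growth of tumor spheroids containing HUVEC and MSC stromal cells.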

Where [1] appears, read: curve of first compound, second compound 0.1 µM.
Setting [2] is: curve of first compound, second compound 0.316 µM.
The mark [3] stands for this setting: curve of first compound, second compound 1 µM.
Where [4] appears, read: curve of first compound, second compound 3.16 µM.
Setting [5] is: curve of first compound, second compound 10 µM.
Where [6] appears, read: second compound 0.1 µM, first compound 0.00949 µM.
[7] abbreviates: second compound 0.1 µM, first compound 0.03 µM.
Where [8] appears, read: second compound 0.1 µM, first compound 0.0949 µM.
The mark [9] stands for this setting: second compound 0.1 µM, first compound 0.3 µM.
Where [10] appears, read: second compound 0.316 µM, first compound 0.00949 µM.
[11] abbreviates: second compound 0.316 µM, first compound 0.03 µM.
Where [12] appears, read: second compound 0.316 µM, first compound 0.0949 µM.
The mark [13] stands for this setting: second compound 0.316 µM, first compound 0.3 µM.
Where [14] appears, read: second compound 1 µM, first compound 0.00949 µM.
[15] abbreviates: second compound 1 µM, first compound 0.03 µM.
[16] abbreviates: second compound 1 µM, first compound 0.0949 µM.
Setting [17] is: second compound 1 µM, first compound 0.3 µM.
The mark [18] stands for this setting: second compound 3.16 µM, first compound 0.00949 µM.
[19] abbreviates: second compound 3.16 µM, first compound 0.03 µM.
Setting [20] is: second compound 3.16 µM, first compound 0.0949 µM.
Where [21] appears, read: second compound 3.16 µM, first compound 0.3 µM.
Where [22] appears, read: second compound 10 µM, first compound 0.00949 µM.
[23] abbreviates: second compound 10 µM, first compound 0.03 µM.
[24] abbreviates: second compound 10 µM, first compound 0.0949 µM.
The mark [25] stands for this setting: second compound 10 µM, first compound 0.3 µM.
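Further: spheroids exposed to agents for seven days before viability read.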

On to `Nc1ncn(C2CC(O)C(CO)S2)c(=O)n1` (stereo not drawn) + CC(CO)NC(=O)c1cc(-c2ccc(Cl)cc2)nn(-c2cnn(C)c2)c1=O, for which the IC50 (as a rule, the midpoint of a concentration-inhibition curve) reads like this: under setting [1], 284 nM; under setting [2], 254 nM; under setting [3], above 300 nM; under setting [4], 139 nM; under setting [5], above 300 nM. Besides, the viability, T/C (usually the result in the treated group divided by that in the control group, in per cent) (second compound 0.1 µM, first compound 0.000949 µM) was 99.4%; the viability, T/C (second compound 0.1 µM, first compound 0.003 µM) is 93.2%; the viability, T/C under setting [6] is 90.7%; the viability, T/C under setting [7] was 84%; the viability, T/C under setting [8] is 69.4%; the viability, T/C under setting [9] is 49%. Also, the viability, T/C is 93.9% (second compound 0.316 µM, first compound 0.000949 µM); 88.4% (second compound 0.316 µM, first compound 0.003 µM); 78.1% under setting [10]; 78.7% under setting [11]; 64.2% under setting [12]; 46.5% under setting [13]. The viability, T/C (second compound 1 µM, first compound 0.000949 µM) was 91.9%; the viability, T/C (second compound 1 µM, first compound 0.003 µM) was 89.6%; the viability, T/C under setting [14] is 90.5%; the viability, T/C under setting [15] is 69.4%; the viability, T/C under setting [16] is 59.1%; the viability, T/C under setting [17] is 54.2%. Besides, the viability, T/C is, setting by setting: (second compound 3.16 µM, first compound 0.000949 µM) 75.1%; (second compound 3.16 µM, first compound 0.003 µM) 75.4%; under setting [18], 70.3%; under setting [19], 58%; under setting [20], 57%; under setting [21], 41.6%. In addition, the viability, T/C was 64.6% (second compound 10 µM, first compound 0.000949 µM); 72.6% (second compound 10 µM, first compound 0.003 µM); 57.1% under setting [22]; 65.2% under setting [23]; 52.5% under setting [24]; 53.3% under setting [25].
For the molecule `O=C(C=Cc1cccc(S(=O)(=O)Nc2ccccc2)c1)NO` + CC(CO)NC(=O)c1cc(-c2ccc(Cl)cc2)nn(-c2cnn(C)c2)c1=O, the IC50 was 3180 nM under setting [1]; 3490 nM under setting [2]; 3180 nM under setting [3]; 3390 nM under setting [4]; 3550 nM under setting [5]. Also, the viability, T/C (second compound 0.1 µM, first compound 0.0316 µM) is 103%; the viability, T/C (second compound 0.1 µM, first compound 0.1 µM) was 108%; the viability, T/C (second compound 0.1 µM, first compound 0.316 µM) is 96.1%; the viability, T/C (second compound 0.1 µM, first compound 1 µM) is 67.4%; the viability, T/C (second compound 0.1 µM, first compound 3.16 µM) is 56.7%; the viability, T/C (second compound 0.1 µM, first compound 10 µM) is 3.34%. The viability, T/C runs as follows: (second compound 0.316 µM, first compound 0.0316 µM) 94%; (second compound 0.316 µM, first compound 0.1 µM) 92.7%; (second compound 0.316 µM, first compound 0.316 µM) 85.4%; (second compound 0.316 µM, first compound 1 µM) 73.5%; (second compound 0.316 µM, first compound 3.16 µM) 56%; (second compound 0.316 µM, first compound 10 µM) 10.6%. For the same molecule, the viability, T/C (second compound 1 µM, first compound 0.0316 µM) was 93.2%; the viability, T/C (second compound 1 µM, first compound 0.1 µM) is 93.9%; the viability, T/C (second compound 1 µM, first compound 0.316 µM) is 89.3%; the viability, T/C (second compound 1 µM, first compound 1 µM) was 65%; the viability, T/C (second compound 1 µM, first compound 3.16 µM) was 55.1%; the viability, T/C (second compound 1 µM, first compound 10 µM) is 6.82%. Further, the viability, T/C (second compound 3.16 µM, first compound 0.0316 µM) is 74.6%; the viability, T/C (second compound 3.16 µM, first compound 0.1 µM) is 83.9%; the viability, T/C (second compound 3.16 µM, first compound 0.316 µM) is 77.4%; the viability, T/C (second compound 3.16 µM, first compound 1 µM) was 67%; the viability, T/C (second compound 3.16 µM, first compound 3.16 µM) is 54.4%; the viability, T/C (second compound 3.16 µM, first compound 10 µM) is 4.74%. In addition, the viability, T/C was 70.6% (second compound 10 µM, first compound 0.0316 µM); 78.8% (second compound 10 µM, first compound 0.1 µM); 76.9% (second compound 10 µM, first compound 0.316 µM); 71.6% (second compound 10 µM, first compound 1 µM); 55.4% (second compound 10 µM, first compound 3.16 µM); 2.36% (second compound 10 µM, first compound 10 µM).
Take `CC(C)c1c(-c2ccccc2)nc2c(C#N)c[nH]n2c1=O`: the viability, T/C is 136% and 101% and 102% (compound 0.0316 µM); 74.3% and 108% and 99% (compound 0.1 µM); 70.3% and 96.4% and 99.4% (compound 0.316 µM); 80.5% and 97.2% and 86.3% (compound 1 µM); 181% and 93.4% and 97.5% (compound 3.16 µM); 99.3% and 77.3% and 90.8% (compound 10 µM). For the same molecule, the IC50 (curve of compound) was above 10000 nM.
As for `Nc1ccn(C2OC(CO)C(O)C2(F)F)c(=O)n1` (stereo not drawn), the viability, T/C was 68.2% and 32.2% and 53.2% (compound 0.0316 µM); 98.7% and 26% and 26.2% (compound 0.1 µM); 79.8% and 18.3% and 16.4% (compound 0.316 µM); 79.5% and 19.9% and 15.4% (compound 1 µM); 87.5% and 17.6% and 11.5% (compound 3.16 µM); 87.3% and 11.4% and 10.1% (compound 10 µM).
As to `O=C(C=Cn1cnc(-c2cc(C(F)(F)F)cc(C(F)(F)F)c2)n1)NNc1cnccn1` + CC(CO)NC(=O)c1cc(-c2ccc(Cl)cc2)nn(-c2cnn(C)c2)c1=O, the IC50 by setting is: under setting [1], 123 nM; under setting [2], 138 nM; under setting [3], 135 nM; under setting [4], 96.2 nM; under setting [5], 125 nM. The viability, T/C is 83.2% under setting [6]; 77.4% under setting [7]; 51.8% under setting [8]; 34.9% under setting [9]; 17.8% (second compound 0.1 µM, first compound 0.949 µM); 11.8% (second compound 0.1 µM, first compound 3 µM). The viability, T/C by setting is: under setting [10], 75.7%; under setting [11], 87.5%; under setting [12], 53.8%; under setting [13], 33.5%; (second compound 0.316 µM, first compound 0.949 µM) 19.8%; (second compound 0.316 µM, first compound 3 µM) 12.6%. Also, the viability, T/C is, setting by setting: under setting [14], 82.3%; under setting [15], 76.4%; under setting [16], 58%; under setting [17], 31.1%; (second compound 1 µM, first compound 0.949 µM) 23.1%; (second compound 1 µM, first compound 3 µM) 14.2%. In addition, the viability, T/C by setting is: under setting [18], 69.1%; under setting [19], 65%; under setting [20], 50.7%; under setting [21], 27.2%; (second compound 3.16 µM, first compound 0.949 µM) 19%; (second compound 3.16 µM, first compound 3 µM) 12.8%. The viability, T/C was 62% under setting [22]; 61.8% under setting [23]; 57.7% under setting [24]; 31.3% under setting [25]; 24.8% (second compound 10 µM, first compound 0.949 µM); 11.4% (second compound 10 µM, first compound 3 µM).
